Test results: patent US20210386068A1, “COMPOSITIONS COMPRISING PYRIDINE CARBOXYLATE HERBICIDES AND VERY LONG CHAIN FATTY ACID (VLCFA) SYNTHESIS INHIBITOR HERBICIDES” (priority 2018, published 2021)
“And” between values parts separate entries of the source, which are not always exact repeats. Equal entries are not always repeated.

Columns and labels:
Assay type in all cases: in vivo
[1] = system: Brassica napus (winter rape, BRSNW); assay: Greenhouse postemergence herbicidal effect, visual injury 20-22 d after spraying, winter rape (BRSNW); conditions: for % visual injury Obs: BRSNW
Description: (§1) Seeds of the desired test plant species were planted in a 90:10% v/v (volume/volume) mixture of PRO-MIX® BX (Premier Tech Horticulture, Quakertown, Pa., USA) and PROFILE® GREENS GRADE™ (Profile Products LLC, Buffalo Grove, Ill., USA) planting mixture, which typically has a pH of 5.2 to 6.2 and an organic matter content of at least 50 percent, in plastic pots with a surface area of 103.2 square centimeters (cm^2). In some aspects, to ensure good germination and healthy plants, a fungicide treatment and/or other chemical or physical treatment was applied. The plants were grown for 7-36 days (d) in a greenhouse with an approximate 14-hour (h) photoperiod which was maintained at about 23° C. during the day and 22° C. during the night. Nutrients and water were added on a regular basis and supplemental lighting was provided with overhead metal halide 1000-Watt lamps as necessary. The plants were employed for testing when they reached the second or third true leaf stage.
(§2) Emulsifiable concentrates of each of each pyridine carboxylate herbicide (Compound A or Compound B) were prepared at 100 grams acid equivalent per liter (g ae/L). The emulsifiable concentrates also included a safener, cloquintocet-mexyl, at 120 grams active ingredient per liter (g ai/L). An aliquot of each emulsifiable concentrate was placed in a 25 mL glass vial and diluted with an aqueous mixture of 1.25% (v/v) ACTIROB® B esterified rapeseed oil (Bayer Crop Science, Research Triangle Park, N.C., USA) or MSO® Concentrate with LECI-TECH® methylated soybean oil (Loveland Products, Loveland, Colo., USA) to obtain concentrated stock solutions at the highest application rate for each herbicide, based upon a 12 milliliter (mL) application volume at a rate of 187 liters per hectare (L/ha). The concentrated stock solutions were further diluted with an aqueous mixture of 1.25% v/v ACTIROB® B or MSO® Concentrate with LECI-TECH® to obtain stock solutions at reduced application rates for each herbicide. Spray solutions of the herbicide combinations (Compound A or Compound B plus VLCFA synthesis inhibitor herbicide) were prepared by adding weighed amounts or aliquots of the VLCFA synthesis inhibitor herbicide to the stock solutions of Compound A or Compound B to form 12-mL spray solutions in two-way combinations.
(§3) The spray solutions were applied to the plant material with an overhead Mandel track sprayer equipped with 8002E nozzles calibrated to deliver 187 L/ha over an application area of 0.503 square meters (m^2) at a spray height of 18 inches ([…] (cm)) above the average plant canopy. Control plants were sprayed in the same manner with the solvent blank. All pyridine carboxylate herbicide (component a) application rates are given as “g ae/ha” and all VLCFA synthesis inhibitor herbicide (component b) application rates are given as “g ai/ha.”
(§4) The treated plants and control plants were placed in a greenhouse as described above and watered by sub-irrigation to prevent wash-off of the test compounds. After 20-22 d, the condition of the test plants as compared with that of the control plants was determined visually and scored on a scale of 0 to 100 percent where 0 corresponds to no injury and 100 corresponds to complete kill.

[2] = system: Sinapis arvensis (wild mustard, SINAR); assay: Greenhouse postemergence herbicidal effect, visual injury 20-22 d after spraying, wild mustard (SINAR); conditions: for % visual injury Obs: SINAR
Description: as §1, §2, §3, §4

[3] = system: Chenopodium album L. (common lambsquarters, CHEAL); assay: Greenhouse postemergence herbicidal effect, visual injury 20-22 d after spraying, common lambsquarters (CHEAL)
Description: as §1, §2, §3, §4

[4] = system: Matricaria chamomilla (wild chamomile, MATCH); assay: Greenhouse postemergence herbicidal effect, visual injury 20-22 d after spraying, wild chamomile (MATCH)
Description: as §1, §2, §3, §4

[5] = system: Cirsium arvense (Canadian thistle, CIRAR); assay: Greenhouse postemergence herbicidal effect, visual injury 20-22 d after spraying, Canadian thistle (CIRAR)
Description: as §1, §2, §3, §4

[6] = system: Triticum aestivum (spring wheat, TRZAS); assay: Greenhouse postemergence crop phytotoxicity, visual injury 20-22 d after spraying, spring wheat (TRZAS); conditions: for % visual injury Obs: TRZAS
Description: as §1, §2, §3, §4

[7] = system: Hordeum vulgare (spring barley, HORVS); assay: Greenhouse postemergence crop phytotoxicity, visual injury 20-22 d after spraying, spring barley (HORVS); conditions: for % visual injury Obs: HORVS
Description: as §1, §2, §3, §4

[8] = system: Viola tricolor (wild pansy, VIOTR); assay: Greenhouse postemergence herbicidal effect, visual injury 20-22 d after spraying, wild pansy (VIOTR); conditions: for % visual injury Obs: VIOTR
Description: as §1, §2, §3, §4

[9] = system: Abutilon theophrasti (velvetleaf, ABUTH); assay: Greenhouse postemergence herbicidal effect, visual injury 20-22 d after spraying, velvetleaf (ABUTH)
Description: as §1
(§5) Emulsifiable concentrates of each of each pyridine carboxylate herbicide (Compound A or Compound B) were prepared at 100 grams acid equivalent per liter (g ae/L). The emulsifiable concentrates also included a safener, cloquintocet-mexyl, at 120 grams active ingredient per liter (g ai/L). […]
as §4

[10] = system: Ipomoea hederacea (ivyleaf morningglory, IPOHE); assay: Greenhouse postemergence herbicidal effect, visual injury 20-22 d after spraying, ivyleaf morningglory (IPOHE)
Description: as §1, §5, §4

[11] = system: Veronica persica (Persian speedwell, VERPE); assay: Greenhouse postemergence herbicidal effect, visual injury 20-22 d after spraying, Persian speedwell (VERPE)
Description: as §1, §2, §3, §4

[12] = system: Papaver rhoeas (common poppy, PAPRH); assay: Greenhouse postemergence herbicidal effect, visual injury 20-22 d after spraying, common poppy (PAPRH)
Description: as §1, §2, §3, §4

[13] = system: Lamium purpureum (purple deadnettle, LAMPU); assay: Greenhouse postemergence herbicidal effect, visual injury 20-22 d after spraying, purple deadnettle (LAMPU)
Description: as §1, §2, §3, §4

[14] = system: Viola arvensis (field pansy, VIOAR); assay: Greenhouse postemergence herbicidal effect, visual injury 20-22 d after spraying, field pansy (VIOAR)
Description: as §1, §2, §3, §4

[15] = system: Anthemis arvensis (corn chamomile, ANTAR); assay: Greenhouse postemergence herbicidal effect, visual injury 20-22 d after spraying, corn chamomile (ANTAR)
Description: as §1, §2, §3, §4

[16] = system: Cyanus segetum (cornflower, CENCY); assay: Greenhouse postemergence herbicidal effect, visual injury 20-22 d after spraying, cornflower (CENCY)
Description: as §1, §2, §3, §4

N#CCOC(=O)c1nc(-c2ccc3cc[nH]c3c2F)c(F)c(N)c1Cl [Compound A, cyanomethyl 4-amino-3-chloro-5-fluoro-6-(7-fluoro-1H-indol-6-yl)pyridine-2-carboxylate]
% visual injury Obs ([1]; Compound A 7.5 g/ha alone): 35% | % visual injury Obs ([1]; Compound A 10 g/ha alone): 43% and 40% | % visual injury BRSNW Obs ([1]; Compound A 7.5 g/ha): 60% | % visual injury BRSNW Obs ([1]; Compound A 10 g/ha): 65% | % visual injury BRSNW Obs ([1]; Compound A 15 g/ha): 73% | % visual injury SINAR Obs ([2]; Compound A 7.5 g/ha): 88% | % visual injury SINAR Obs ([2]; Compound A 10 g/ha): 91% | % visual injury SINAR Obs ([2]; Compound A 15 g/ha): 91% | % visual injury Obs ([2]; Compound A 7.5 g/ha alone): 88% and 85% and 83% | % visual injury Obs ([2]; Compound A 10 g/ha alone): 90% and 92% and 88% | % visual injury Obs ([3]; Compound A 7.5 g/ha alone): 88% and 70% and 60% and 75% | % visual injury Obs ([3]; Compound A 10 g/ha alone): 93% and 83% and 90% and 80% | % visual injury MATCH Obs ([4]; Compound A 7.5 g/ha): 23% | % visual injury MATCH Obs ([4]; Compound A 10 g/ha): 35% | % visual injury MATCH Obs ([4]; Compound A 15 g/ha): 45% | % visual injury CIRAR Obs ([5]; Compound A 7.5 g/ha): 50% | % visual injury CIRAR Obs ([5]; Compound A 10 g/ha): 63% | % visual injury CIRAR Obs ([5]; Compound A 15 g/ha): 63% | % visual injury TRZAS Obs ([6]; Compound A 7.5 g/ha): 0% | % visual injury TRZAS Obs ([6]; Compound A 10 g/ha): 0% | % visual injury TRZAS Obs ([6]; Compound A 15 g/ha): 0% | % visual injury Obs ([6]; Compound A 7.5 g/ha alone): 0% | % visual injury Obs ([6]; Compound A 10 g/ha alone): 0% | % visual injury HORVS Obs ([7]; Compound A 7.5 g/ha): 0% | % visual injury HORVS Obs ([7]; Compound A 10 g/ha): 0% | % visual injury HORVS Obs ([7]; Compound A 15 g/ha): 0% | % visual injury Obs ([7]; Compound A 7.5 g/ha alone): 0% and 8% | % visual injury Obs ([7]; Compound A 10 g/ha alone): 0% | % visual injury VIOTR Obs ([8]; Compound A 7.5 g/ha): 13% | % visual injury VIOTR Obs ([8]; Compound A 10 g/ha): 15% | % visual injury VIOTR Obs ([8]; Compound A 15 g/ha): 15% | % visual injury Obs ([8]; Compound A 7.5 g/ha alone): 3% | % visual injury Obs ([8]; Compound A 10 g/ha alone): 3% | % visual injury Obs ([9]; Compound A 7.5 g/ha alone): 40% | % visual injury Obs ([9]; Compound A 10 g/ha alone): 48% | % visual injury Obs ([10]; Compound A 7.5 g/ha alone): 5% | % visual injury Obs ([10]; Compound A 10 g/ha alone): 0% | % visual injury VERVE Obs ([11]; Compound A 7.5 g/ha): 78% | % visual injury VERVE Obs ([11]; Compound A 10 g/ha): 90% | % visual injury VERVE Obs ([11]; Compound A 15 g/ha): 93% | % visual injury PAPRH Obs ([12]; Compound A 7.5 g/ha): 100% | % visual injury PAPRH Obs ([12]; Compound A 10 g/ha): 99% | % visual injury PAPRH Obs ([12]; Compound A 15 g/ha): 100% | % visual injury LAMPU Obs ([13]; Compound A 7.5 g/ha): 68% | % visual injury LAMPU Obs ([13]; Compound A 10 g/ha): 73% | % visual injury LAMPU Obs ([13]; Compound A 15 g/ha): 73% | % visual injury VIOAR Obs ([14]; Compound A 7.5 g/ha): 10% | % visual injury VIOAR Obs ([14]; Compound A 10 g/ha): 13% | % visual injury VIOAR Obs ([14]; Compound A 15 g/ha): 10% | % visual injury ANTAR Obs ([15]; Compound A 7.5 g/ha): 68% | % visual injury ANTAR Obs ([15]; Compound A 10 g/ha): 70% | % visual injury ANTAR Obs ([15]; Compound A 15 g/ha): 88% | % visual injury CENCY Obs ([16]; Compound A 7.5 g/ha): 75% | % visual injury CENCY Obs ([16]; Compound A 10 g/ha): 78% | % visual injury CENCY Obs ([16]; Compound A 15 g/ha): 80%
